# Assay results from PubChem BioAssay (NCI).
#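 GI50 is the concentration that inhibits growth by half. TGI: total growth inhibition.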
# Tests used:
# Experiment in all cases: NCI anticancer screen, dose series, 384-well format
# HCT-116 colon = system: HCT-116 colon
# RPMI-8226 leukemia = system: RPMI-8226 leukemia
# NCI-H322M lung = system: NCI-H322M lung
# MALME-3M melanoma = system: MALME-3M melanoma
# T-47D breast = system: T-47D breast
# NCI/ADR-RES ovarian = system: NCI/ADR-RES ovarian
# UACC-62 melanoma = system: UACC-62 melanoma
# 786-0 renal = system: 786-0 renal
# SF-295 CNS = system: SF-295 CNS
# MDA-MB-231 breast = system: MDA-MB-231 breast
# CCRF-CEM leukemia = system: CCRF-CEM leukemia
# SNB-19 CNS = system: SNB-19 CNS
# HCT-15 colon = system: HCT-15 colon
# BT-549 breast = system: BT-549 breast
# COLO 205 colon = system: COLO 205 colon
# OVCAR-5 ovarian = system: OVCAR-5 ovarian
# KM12 colon = system: KM12 colon
# EKVX NSCLC = system: EKVX NSCLC
# MOLT-4 leukemia = system: MOLT-4 leukemia
# U251 glioblastoma = system: U251 glioblastoma
# SK-MEL-5 melanoma = system: SK-MEL-5 melanoma
# SF-539 CNS = system: SF-539 CNS
# SF-268 CNS = system: SF-268 CNS
# CAKI-1 renal = system: CAKI-1 renal
# SK-MEL-2 melanoma = system: SK-MEL-2 melanoma
# ACHN renal = system: ACHN renal
# PC-3 prostate = system: PC-3 prostate
# UACC-257 melanoma = system: UACC-257 melanoma
# LOX IMVI melanoma = system: LOX IMVI melanoma
# HT29 colon = system: HT29 colon
# DU-145 prostate = system: DU-145 prostate
# OVCAR-4 ovarian = system: OVCAR-4 ovarian
# MDA-MB-435 melanoma = system: MDA-MB-435 melanoma
# A498 renal = system: A498 renal
# NCI-H522 lung = system: NCI-H522 lung
# M14 melanoma = system: M14 melanoma
# SNB-75 CNS = system: SNB-75 CNS
# HS 578T breast = system: HS 578T breast
# OVCAR-3 ovarian = system: OVCAR-3 ovarian
# SR leukemia = system: SR leukemia
# SN12C renal = system: SN12C renal
# HOP-92 NSCLC = system: HOP-92 NSCLC
# HOP-62 NSCLC = system: HOP-62 NSCLC
# K-562 leukemia = system: K-562 leukemia
# A549 NSCLC = system: A549 NSCLC
# IGROV1 ovarian = system: IGROV1 ovarian
# MDA-MB-468 breast = system: MDA-MB-468 breast
smiles,measurement,setting,value
CC(O)[C@H](NC(=O)N[C@@H](CC(N)=O)c1nc(N2CCNCC2)no1)C(=O)O (some centres undefined),GI50,HCT-116 colon,> 100 µM
same,TGI,HCT-116 colon,> 100 µM
same,GI50,RPMI-8226 leukemia,> 100 µM
same,TGI,RPMI-8226 leukemia,> 100 µM
same,GI50,NCI-H322M lung,> 100 µM
same,TGI,NCI-H322M lung,> 100 µM
same,GI50,MALME-3M melanoma,> 100 µM
same,TGI,MALME-3M melanoma,> 100 µM
same,GI50,T-47D breast,> 100 µM
same,TGI,T-47D breast,> 100 µM
same,GI50,NCI/ADR-RES ovarian,> 100 µM
same,TGI,NCI/ADR-RES ovarian,> 100 µM
same,GI50,UACC-62 melanoma,> 100 µM
same,TGI,UACC-62 melanoma,> 100 µM
same,GI50,786-0 renal,> 100 µM
same,TGI,786-0 renal,> 100 µM
same,GI50,SF-295 CNS,> 100 µM
same,TGI,SF-295 CNS,> 100 µM
same,GI50,MDA-MB-231 breast,> 100 µM
same,TGI,MDA-MB-231 breast,> 100 µM
same,GI50,CCRF-CEM leukemia,> 100 µM
same,TGI,CCRF-CEM leukemia,> 100 µM
same,GI50,SNB-19 CNS,> 100 µM
same,TGI,SNB-19 CNS,> 100 µM
same,GI50,HCT-15 colon,> 100 µM
same,TGI,HCT-15 colon,> 100 µM
same,GI50,BT-549 breast,> 100 µM
same,TGI,BT-549 breast,> 100 µM
same,GI50,COLO 205 colon,> 100 µM
same,TGI,COLO 205 colon,> 100 µM
same,GI50,OVCAR-5 ovarian,> 100 µM
same,TGI,OVCAR-5 ovarian,> 100 µM
same,GI50,KM12 colon,> 100 µM
same,TGI,KM12 colon,> 100 µM
same,GI50,EKVX NSCLC,> 100 µM
same,TGI,EKVX NSCLC,> 100 µM
same,GI50,MOLT-4 leukemia,> 100 µM
same,TGI,MOLT-4 leukemia,> 100 µM
same,GI50,U251 glioblastoma,> 100 µM
same,TGI,U251 glioblastoma,> 100 µM
same,GI50,SK-MEL-5 melanoma,> 100 µM
same,TGI,SK-MEL-5 melanoma,> 100 µM
same,GI50,SF-539 CNS,> 100 µM
same,TGI,SF-539 CNS,> 100 µM
same,GI50,SF-268 CNS,> 100 µM
same,TGI,SF-268 CNS,> 100 µM
same,GI50,CAKI-1 renal,> 100 µM
same,TGI,CAKI-1 renal,> 100 µM
same,GI50,SK-MEL-2 melanoma,> 100 µM
same,TGI,SK-MEL-2 melanoma,> 100 µM
same,GI50,ACHN renal,> 100 µM
same,TGI,ACHN renal,> 100 µM
same,GI50,PC-3 prostate,> 100 µM
same,TGI,PC-3 prostate,> 100 µM
same,GI50,UACC-257 melanoma,> 100 µM
same,TGI,UACC-257 melanoma,> 100 µM
same,GI50,LOX IMVI melanoma,> 100 µM
same,TGI,LOX IMVI melanoma,> 100 µM
same,GI50,HT29 colon,> 100 µM
same,TGI,HT29 colon,> 100 µM
same,GI50,DU-145 prostate,> 100 µM
same,TGI,DU-145 prostate,> 100 µM
same,GI50,OVCAR-4 ovarian,> 100 µM
same,TGI,OVCAR-4 ovarian,> 100 µM
same,GI50,MDA-MB-435 melanoma,> 100 µM
same,TGI,MDA-MB-435 melanoma,> 100 µM
same,GI50,A498 renal,> 100 µM
same,TGI,A498 renal,> 100 µM
same,GI50,NCI-H522 lung,> 100 µM
same,TGI,NCI-H522 lung,> 100 µM
same,GI50,M14 melanoma,> 100 µM
same,TGI,M14 melanoma,> 100 µM
same,GI50,SNB-75 CNS,> 100 µM
same,TGI,SNB-75 CNS,> 100 µM
same,GI50,HS 578T breast,> 100 µM
same,TGI,HS 578T breast,> 100 µM
same,GI50,OVCAR-3 ovarian,> 100 µM
same,TGI,OVCAR-3 ovarian,> 100 µM
same,GI50,SR leukemia,> 100 µM
same,TGI,SR leukemia,> 100 µM
same,GI50,SN12C renal,> 100 µM
same,TGI,SN12C renal,> 100 µM
same,GI50,HOP-92 NSCLC,> 100 µM
same,TGI,HOP-92 NSCLC,> 100 µM
same,GI50,HOP-62 NSCLC,> 100 µM
same,TGI,HOP-62 NSCLC,> 100 µM
same,GI50,K-562 leukemia,> 100 µM
same,TGI,K-562 leukemia,> 100 µM
same,GI50,A549 NSCLC,> 100 µM
same,TGI,A549 NSCLC,> 100 µM
same,GI50,IGROV1 ovarian,> 100 µM
same,TGI,IGROV1 ovarian,> 100 µM
same,GI50,MDA-MB-468 breast,> 100 µM
same,TGI,MDA-MB-468 breast,> 100 µM
